# Target: TBK1 (Homo sapiens (Human), UniProt Q9UHD2)
# Test: TBK1 low ATP kinase assay (in vitro assay 1)
# Format: biochemical
# Conditions: in vitro assay 1, read-out: TBK1 low ATP kinase assay IC50
# Sequence of TBK1 (Q9UHD2 whole entry): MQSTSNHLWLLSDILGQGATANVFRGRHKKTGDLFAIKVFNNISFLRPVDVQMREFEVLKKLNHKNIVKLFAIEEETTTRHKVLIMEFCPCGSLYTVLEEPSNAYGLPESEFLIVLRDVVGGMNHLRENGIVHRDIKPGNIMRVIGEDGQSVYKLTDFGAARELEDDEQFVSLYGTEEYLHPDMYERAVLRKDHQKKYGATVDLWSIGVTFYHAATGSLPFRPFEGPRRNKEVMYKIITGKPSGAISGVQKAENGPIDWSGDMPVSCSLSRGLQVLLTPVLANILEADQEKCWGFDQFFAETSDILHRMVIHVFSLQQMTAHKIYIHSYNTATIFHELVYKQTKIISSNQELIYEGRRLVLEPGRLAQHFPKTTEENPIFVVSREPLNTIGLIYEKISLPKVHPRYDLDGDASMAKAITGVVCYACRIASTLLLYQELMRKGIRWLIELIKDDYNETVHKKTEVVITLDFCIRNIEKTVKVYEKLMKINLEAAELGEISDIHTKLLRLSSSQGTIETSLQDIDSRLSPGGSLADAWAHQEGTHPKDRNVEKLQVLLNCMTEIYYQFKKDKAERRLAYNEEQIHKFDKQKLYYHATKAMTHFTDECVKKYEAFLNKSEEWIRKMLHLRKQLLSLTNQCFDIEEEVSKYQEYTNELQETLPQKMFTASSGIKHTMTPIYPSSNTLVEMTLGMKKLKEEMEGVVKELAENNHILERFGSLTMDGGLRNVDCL
row,IC50 [nM],SMILES
1,340,"Cc1cccc(N2CCN(Cc3ccnc(Nc4nc5ccc(-c6nc(C)no6)cc5[nH]4)c3)CC2)n1 [Example 101.19, 6-(3-methyl-1,2,4-oxadiazol-5-yl)-N-(4-{[4-(6-methylpyridin-2-yl)piperazin-1-yl]methyl}pyridin-2-yl)-1H-benzimidazol-2-amine]"
2,560,"Cc1noc(-c2ccc3nc(Nc4cc(CN5CCN(C(N)=O)CC5)ccn4)[nH]c3c2)n1 [Example 101.20, 4-[(2-{[6-(3-methyl-1,2,4-oxadiazol-5-yl)-1H-benzimidazol-2-yl]amino}pyridin-4-yl)methyl]piperazine-1-carboxamide]"
3,> 57000,"Cc1noc(-c2ccc3nc(Nc4cc(CN5CCN(c6ccc(F)c(F)c6)CC5)ccn4)[nH]c3c2)n1 [Example 101.21, N-(4-{[4-(3,4-difluorophenyl)piperazin-1-yl]methyl}pyridin-2-yl)-6-(3-methyl-1,2,4-oxadiazol-5-yl)-1H-benzimidazol-2-amine]"
4,280,"Cc1noc(-c2ccc3nc(Nc4cc(CN5CCN(c6c(Cl)cncc6Cl)CC5)ccn4)[nH]c3c2)n1 [Example 101.23, N-(4-{[4-(3,5-dichloropyridin-4-yl)piperazin-1-yl]methyl}pyridin-2-yl)-6-(3-methyl-1,2,4-oxadiazol-5-yl)-1H-benzimidazol-2-amine]"
5,160,"Cc1noc(-c2ccc3nc(Nc4cc(CN5CCN(C(=O)c6cccs6)CC5)ccn4)[nH]c3c2)n1 [Example 101.24, {4-[(2-{[6-(3-methyl-1,2,4-oxadiazol-5-yl)-1H-benzimidazol-2-yl]amino}pyridin-4-yl)methyl]piperazin-1-yl}(thiophen-2-yl)methanone]"
6,310,"Cc1noc(-c2ccc3nc(Nc4cc(CN5CCN(C(=O)c6cccnc6)CC5)ccn4)[nH]c3c2)n1 [Example 101.26, {4-[(2-{[6-(3-methyl-1,2,4-oxadiazol-5-yl)-1H-benzimidazol-2-yl]amino}pyridin-4-yl)methyl]piperazin-1-yl}(pyridin-3-yl)methanone]"
7,350,"Cc1noc(-c2ccc3nc(Nc4cc(CN5CCN(c6ncncn6)CC5)ccn4)[nH]c3c2)n1 [Example 101.27, 6-(3-methyl-1,2,4-oxadiazol-5-yl)-N-(4-{[4-(1,3,5-triazin-2-yl)piperazin-1-yl]methyl}pyridin-2-yl)-1H-benzimidazol-2-amine]"
8,210,"CCC(=O)N1CCN(Cc2ccnc(Nc3nc4ccc(-c5nc(C)no5)cc4[nH]3)c2)CC1 [Example 101.28, 1-{4-[(2-{[6-(3-methyl-1,2,4-oxadiazol-5-yl)-1H-benzimidazol-2-yl]amino}pyridin-4-yl)methyl]piperazin-1-yl}propan-1-one]"
9,450,"Cc1noc(-c2ccc3nc(Nc4cc(CN5CCN(c6cncc(Cl)n6)CC5)ccn4)[nH]c3c2)n1 [Example 101.29, N-(4-{[4-(6-chloropyrazin-2-yl)piperazin-1-yl]methyl}pyridin-2-yl)-6-(3-methyl-1,2,4-oxadiazol-5-yl)-1H-benzimidazol-2-amine]"
10,560,"Cc1ccnc(N2CCN(Cc3ccnc(Nc4nc5ccc(-c6nc(C)no6)cc5[nH]4)c3)CC2)c1 [Example 101.30, 6-(3-methyl-1,2,4-oxadiazol-5-yl)-N-(4-{[4-(4-methylpyridin-2-yl)piperazin-1-yl]methyl}pyridin-2-yl)-1H-benzimidazol-2-amine]"
11,510,"Cc1noc(-c2ccc3nc(Nc4cc(CN5CCN(C(=O)N6CCCC6)CC5)ccn4)[nH]c3c2)n1 [Example 101.31, {4-[(2-{[6-(3-methyl-1,2,4-oxadiazol-5-yl)-1H-benzimidazol-2-yl]amino}pyridin-4-yl)methyl]piperazin-1-yl}(pyrrolidin-1-yl)methanone]"
12,360,"N#Cc1cnccc1-c1ccc2nc(Nc3cc(CN4CCN(C(=O)C5CC5)CC4)ccn3)[nH]c2c1 [Example 103.01, 4-{2-[(4-{[4-(cyclopropylcarbonyl)piperazin-1-yl]methyl}pyridin-2-yl)amino]-1H-benzimidazol-6-yl}pyridine-3-carbonitrile]"
13,2600,"Cc1nc(-c2ccc3nc(Nc4cc(CN5CCN(C(=O)CC(F)(F)F)CC5)ccn4)[nH]c3c2)c2ccsc2n1 [Example 104.01, 3,3,3-trifluoro-1-{4-[(2-{[6-(2-methylthieno[2,3-d]pyrimidin-4-yl)-1H-benzimidazol-2-yl]amino}pyridin-4-yl)methyl]piperazin-1-yl}propan-1-one]"
14,270,"O=C(CC(F)(F)F)N1CCN(Cc2ccnc(Nc3nc4ccc(-c5ncnc6sccc56)cc4[nH]3)c2)CC1 [Example 105.01, 3,3,3-trifluoro-1-{4-[(2-{[6-(thieno[2,3-d]pyrimidin-4-yl)-1H-benzimidazol-2-yl]amino}pyridin-4-yl)methyl]piperazin-1-yl}propan-1-one]"
15,1500,"O=C(CC(F)(F)F)N1CCN(Cc2ccnc(Nc3nc4ccc(-c5ccncc5C(F)(F)F)cc4[nH]3)c2)CC1 [Example 106.01, 3,3,3-trifluoro-1-(4-{[2-({6-[3-(trifluoromethyl)pyridin-4-yl]-1H-benzimidazol-2-yl}amino)pyridin-4-yl]methyl}piperazin-1-yl)propan-1-one]"
16,52,"COc1c(-c2ccc3nc(Nc4cc(CN5CCN(C(=O)OC(C)(C)C)CC5)ccn4)[nH]c3c2)ncnc1N(C)C [Example 107.01.01, tert-butyl 4-{[2-({6-[6-(dimethylamino)-5-methoxypyrimidin-4-yl]-1H-benzimidazol-2-yl}amino)pyridin-4-yl]methyl}piperazine-1-carboxylate]"
17,16,"COc1c(-c2ccc3nc(Nc4cc(CN5CCN(C(=O)C6CC6)CC5)ccn4)[nH]c3c2)ncnc1N(C)C [Example 107.01.02, cyclopropyl(4-{[2-({6-[6-(dimethylamino)-5-methoxypyrimidin-4-yl]-1H-benzimidazol-2-yl}amino)pyridin-4-yl]methyl}piperazin-1-yl)methanone]"
18,13,"COc1c(-c2ccc3nc(Nc4cc(CN5CCN(C(=O)CC(F)(F)F)CC5)ccn4)[nH]c3c2)ncnc1N(C)C [Example 107.01.03, 1-(4-{[2-({6-[6-(dimethylamino)-5-methoxypyrimidin-4-yl]-1H-benzimidazol-2-yl}amino)pyridin-4-yl]methyl}piperazin-1-yl)-3,3,3-trifluoropropan-1-one]"
19,35,"COc1c(NC2CC2)ncnc1-c1ccc2nc(Nc3cc(CN4CCN(C(=O)OC(C)(C)C)CC4)ccn3)[nH]c2c1 [Example 108.01, tert-butyl 4-{[2-({6-[6-(cyclopropylamino)-5-methoxypyrimidin-4-yl]-1H-benzimidazol-2-yl}amino)pyridin-4-yl]methyl}piperazine-1-carboxylate]"
20,8.2,"COc1c(NC2CC2)ncnc1-c1ccc2nc(Nc3cc(CN4CCN(C(=O)CC(F)(F)F)CC4)ccn3)[nH]c2c1 [Example 108.02, 1-(4-{[2-({6-[6-(cyclopropylamino)-5-methoxypyrimidin-4-yl]-1H-benzimidazol-2-yl}amino)pyridin-4-yl]methyl}piperazin-1-yl)-3,3,3-trifluoropropan-1-one]"
21,8.9,"COc1c(NC2CC2)ncnc1-c1ccc2nc(Nc3cc(CN4CCN(C(=O)C5CC5)CC4)ccn3)[nH]c2c1 [Example 108.03, cyclopropyl(4-{[2-({6-[6-(cyclopropylamino)-5-methoxypyrimidin-4-yl]-1H-benzimidazol-2-yl}amino)pyridin-4-yl]methyl}piperazin-1-yl)methanone]"
22,9.2,"COc1c(NCC2CC2)ncnc1-c1ccc2nc(Nc3cc(CN4CCN(C(=O)OC(C)(C)C)CC4)ccn3)[nH]c2c1 [Example 109.01.01, tert-butyl 4-({2-[(6-{6-[(cyclopropylmethyl)amino]-5-methoxypyrimidin-4-yl}-1H-benzimidazol-2-yl)amino]pyridin-4-yl}methyl)piperazine-1-carboxylate]"
23,5.4,"COc1c(NCC2CC2)ncnc1-c1ccc2nc(Nc3cc(CN4CCN(C(=O)CC(F)(F)F)CC4)ccn3)[nH]c2c1 [Example 109.01.02, 1-[4-({2-[(6-{6-[(cyclopropylmethyl)amino]-5-methoxypyrimidin-4-yl}-1H-benzimidazol-2-yl)amino]pyridin-4-yl}methyl)piperazin-1-yl]-3,3,3-trifluoropropan-1-one]"
24,8.7,"COc1c(NCC2CC2)ncnc1-c1ccc2nc(Nc3cc(CN4CCN(C(=O)C5CC5)CC4)ccn3)[nH]c2c1 [Example 109.01.03, cyclopropyl[4-({2-[(6-{6-[(cyclopropylmethyl)amino]-5-methoxypyrimidin-4-yl}-1H-benzimidazol-2-yl)amino]pyridin-4-yl}methyl)piperazin-1-yl]methanone]"
25,30,"COc1c(-c2ccc3nc(Nc4cc(CN5CCN(C(=O)C6CC6)CC5)ccn4)[nH]c3c2)ncnc1N(C)CC1CC1 [Example 110.02, cyclopropyl[4-({2-[(6-{6-[(cyclopropylmethyl)(methyl)amino]-5-methoxypyrimidin-4-yl}-1H-benzimidazol-2-yl)amino]pyridin-4-yl}methyl)piperazin-1-yl]methanone]"
26,52,"COc1c(-c2ccc3nc(Nc4cc(CN5CCN(C(=O)C6(C(F)(F)F)CC6)CC5)ccn4)[nH]c3c2)ncnc1N(C)CC1CC1 [Example 110.03, [4-({2-[(6-{6-[(cyclopropylmethyl)(methyl)amino]-5-methoxypyrimidin-4-yl}-1H-benzimidazol-2-yl)amino]pyridin-4-yl}methyl)piperazin-1-yl][1-(trifluoromethyl)cyclopropyl]methanone]"
27,62,"COc1c(-c2ccc3nc(Nc4cc(CN5CCN(C(=O)CC(F)(F)F)CC5)ccn4)[nH]c3c2)ncnc1N(C)CC1CC1 [Example 110.04, 1-[4-({2-[(6-{6-[(cyclopropylmethyl)(methyl)amino]-5-methoxypyrimidin-4-yl}-1H-benzimidazol-2-yl)amino]pyridin-4-yl}methyl)piperazin-1-yl]-3,3,3-trifluoropropan-1-one]"
28,6.69,"C[C@H](c1ccnc(Nc2nc3ccc(-c4cc(OCC(F)(F)F)ncn4)cc3[nH]2)c1)N1CCN(C(=O)CC(F)(F)F)CC1 [Example 119.02, 3,3,3-trifluoro-1-(4-{(1R)-1-[2-({6-[6-(2,2,2-trifluoroethoxy)pyrimidin-4-yl]-1H-benzimidazol-2-yl}amino)pyridin-4-yl]ethyl}piperazin-1-yl)propan-1-one]"

# Reference: patent US10894784B2, “Heteroarylbenzimidazole compounds” (BAYER PHARMA AKTIENGESELLSCHAFT, priority 2015, dated 2021)
